According to patent publication US20120058133A1, “INHIBITION OF TRNA SYNTHETASES AND THERAPEUTIC APPLICATIONS THEREOF” (President and Fellows of Harvard College, priority 2009, published 2012):
“Also recorded” adds a separate entry of the source. Values belong to the compound of their own block, whether it stands above or below them.

Assays:
[1] = system: translation in rabbit reticulocyte lysate; assay: In vitro translation in rabbit reticulocyte lysate (RRL); assay type: biochemical; conditions: for translation of luciferase RNA in RRL: standard amino acid mix
Procedure: FIG. 23. HF and FF inhibit prolyl tRNA synthetase activity in vitro. […] Rabbit reticulocyte lysate (RRL) was incubated with luciferase mRNA and translation quantitated in a luminescence assay. A high concentration of mixed or individual amino acids (1 mM of each) was added to rescue translational inhibition. AA Mix 1: Asn, Arg, Val, Glu, Gly; AA Mix2: Lys, Ile, Tyr, Asp, Trp; Mix 3: His, Met, Leu, Ala, Thr; Mix 4: Ser, Phe, Pro, Gln. […] Note log scale of y axis.
Inhibitors (FIG. 22) and proline were assayed as described in FIG. 23A. Note log scale at Y axis. Error bars reflect standard deviation of triplicate determinations.
Short myc-tagged polypeptides of identical sequence (see Example 9, “Materials and Methods”) with the exception that NoPro lacks proline, while ProPro contains a proline dipeptide, were translated in RRL in the presence of indicated inhibitors. Translation was examined by anti-myc Western blot.
Note log scale of Y axis.
Translation in vitro was performed using rabbit reticulocyte lysates and luciferase mRNA as template. Translation was measured as arbitrary units of luciferase activity using a luminometer based luminescence assay. Log scale presentation of background-subtracted data is shown.

[2] = system: GCN2 phosphorylation / AAR pathway; assay: AAR pathway activation in MEFs (GCN2, eIF2a phosphorylation, CHOP); assay type: cell-based, mouse; conditions: for reversal of GCN2 phosphorylation by cognate amino acid: 2 mM proline or 2 mM threonine; for GCN2 phosphorylation in fibroblasts: 2 hours, borrelidin 1 μM
Procedure: FIG. 24. Activation of the AAR in cells by HF/FF occurs through inhibition of proline utilization. FIG. 24A is a gel showing HF-induction of the AAR pathway is reversed by proline. MEFs were treated with the indicated concentration of HF or FF in the presence or absence of 2 mM Proline for 2 hours (left) or treated with 1 μM borrelidin in the presence or absence of 2 mM Threonine for 2 hours (right). Cells were lysed and assessed by anti-pGCN2 or anti-GCN2 Western blot. Data are representative of three separate experiments.
FIG. 24B is a gel showing HF induction of eIF2a phosphorylation and CHOP expression is GCN2 dependent. Wild Type or GCN2−/− MEFs were treated with 50 nM HF in the presence or absence of 2 mM proline. Cells were lysed at 2 hours post-HF addition (peIF2a) or 6 hours post-HF addition (CHOP) and analyzed for phosphoprotein or total protein levels by Western blot.

[3] = system: murine CD4+ CD25− T cells; assay: Th17 differentiation of activated CD4+ CD25− T cells (TGFβ plus IL-6; IL-17+ IFNγ− cells); assay type: cell-based, mouse; conditions: for IL-17 production / Th17 differentiation: 0.2 mM L-tryptophanol; for reversal of Th17 inhibition by threonine: 6 nM borrelidin, 0.5 mM threonine
Procedure: (§1) Purified CD4^+ CD25^− T cells were activated in vitro as previously described (Djuretic et al., Nat. Immunol. 8:145, 2007) using 0.3 μg/ml hamster anti-mouse CD3 (clone 145-2C11) (ATCC—Manassas, Va.) and 0.5 μg/ml hamster anti-mouse CD28 (BD Pharmingen—San Jose, Calif.). Activated cell cultures were differentiated using the following combinations of cytokines and antibodies: iTreg-recombinant human TGFβ1 (3 ng/ml—R&D systems, Minneapolis, Minn.), Th17-TGFβ1 (3 ng/ml) plus recombinant mouse IL-6 (30 ng/ml—R&D systems). Th1 and Th2 differentiation was performed as previously described (Djuretic et al., Nat. Immunol. 8:145, 2007). Human IL-2 supernatant (National Cancer Institute) was used in culture at 0.01 U/ml and was added at 48 hours-post activation when T cells were split into tissue culture wells lacking CD3 and CD28 antibodies, with the exception of Th17 cultures that were maintained in the absence of exogenous IL-2. CD8^+ T cells were activated with 1 μg/ml anti-CD3 and 1 μg/ml anti-CD28 and were expanded in 0.1 U/ml IL-2 until day 6 post activation. CD43-depleted B cells were activated in vitro by culturing with 25 μg/ml LPS (Sigma—St. Louis, Mo.) for 3-4 days in the presence or absence of TGFβ. All reagents (see below) were added at the time of T cell activation and again at 48 hours post activation unless indicated otherwise. For some experiments, purified CD4^+ CD25^− T cells, CD8^+ T cells or B cells were labeled with 1 μM CFSE (Invitrogen) prior to activation in accordance with manufacturer's instructions. Human T cell activation was performed by plating purified monocytes in a 96-well flat bottom plate at a concentration of 2×10^4 cells per well in complete medium overnight. 10^5 purified human memory T cells were added to monocyte cultures in the presence of soluble anti-CD3/anti-CD28 beads (Dynabeads, Invitrogen). T cells were expanded in the presence HF or MAZ1310 for up to 6 days.
MAZ1310 (Kamberov, Ph.D. Dissertation, Harvard University, 2008) was generated by chemical derivatization of halofuginone and was used at equal concentrations as a negative control. HF and MAZ1310 were prepared as 100 mM stock solutions in DMSO and diluted to the indicated concentrations. SB-431542 (Inman et al., Mol. Pharmacol. 62:65, 2002) (Tocris bioscience—Ellisville, Mo.) was prepared as a 10 mM stock solution in DMSO and was used in culture at 10 μM. L-tryptophanol was prepared as a 20 mM stock solution in 0.1 M NaOH, pH 7.4 and was used at 0.2 mM. For amino acid starvation experiments, T cells were activated and differentiated as above in D-MEM medium without L-cysteine and L-methionine (Invitrogen—Carlsbad, Calif.), or D-MEM medium without L-leucine. Stocks containing 20 mM L-cysteine (Sigma—St. Louis, Mo.) plus 10 mM L-methionine (Sigma), or 400 mM L-leucine (Sigma) were prepared in ddH2O, pH 1.0 and were added to medium at the indicated concentrations.
(§2) For detection of intracellular cytokines in murine cells, cultured T or B cells were stimulated with 10 nM PMA (Sigma) and […] (Sigma) for 4-5 hours in the presence of 10 mM brefeldin A (Sigma). Stimulated cells were harvested, washed with PBS and fixed with PBS plus 4% paraformaldehyde at room temperature for 20 minutes. Cells were then washed with PBS, permeabilized with PBS supplemented with 1% BSA and 0.5% saponin (Sigma) at room temperature for 10 minutes before cytokine-specific antibodies were added and incubated with cells for an additional 20 minutes at room temperature.

[4] = Cell-based assays (not specified)
TGFβ signaling = assay: Lymphocyte responses to TGFβ (Smad phosphorylation and others); assay type: cell-based, mouse; conditions: low dose HF; 10 μM SB-431542
Procedure: FIG. 8. […] FIG. 8A is a set of FACS analyses of CD4^+ CD25^− T cells activated in Th1 or Th2 polarizing conditions, either in the presence or absence of TGFβ. DMSO, 10 nM HF, 10 nM MAZ1310, or 10 μM SB-431542 added as indicated at the time of activation. Intracellular cytokine staining was performed on expanded T cells on day 5.
FIG. 8B is a set of FACS analyses of CD8^+ T cells activated in the presence or absence of TGFβ and cultured with DMSO, 10 nM HF, 10 nM MAZ1310, or 10 μM SB-431542. Expanded cells were restimulated on day 5 and intracellular staining was performed.
FIG. 8C is a set of FACS analyses of CFSE-labeled B cells activated by LPS stimulation in the presence or absence of TGFβ plus DMSO, 10 nM HF, 10 nM MAZ1310, or 10 μM SB-431542. Intracellular IL-6 production in B cells restimulated with PMA plus ionomycin, or cell-surface IgA expression was determined 4 days after activation.
FIG. 8D depicts western blot analyses of purified CD4^+ CD25^− T cells treated with DMSO, 40 nM MAZ1310, titrating concentrations of HF (2.5-40 nM) or 10 μM SB-431542 for 30 minutes in complete medium supplemented with 0.1% fetal calf serum. T cells were then activated in the presence or absence of 3 ng/ml TGFβ. Whole cell extracts were prepared after 1 hour of stimulation and western blot analyses were performed using the indicated antibodies. […]

[5] = system: mouse and human fibroblasts; assay: Collagen protein production in mouse and human fibroblasts; assay type: cell-based; conditions: data not shown
[6] = system: murine CD4+ CD25− T cells, CD8+ T cells, B cells; assay: T and B cell activation, proliferation, cytokine production and Th1/Th2/iTreg differentiation; assay type: cell-based, mouse; conditions: 3 ng/ml Borrelidin
Procedure: FIG. 2A, Left, is a graph showing dose response analyses performed on activated carboxyfluorescein succinimidyl ester (CFSE)-labeled CD4^+CD25^− T cells in the presence of DMSO, 40 nM MAZ1310, or increasing concentrations of halofuginone (HF) (1.25-40 nM). CFSE dilution and cell surface CD25 expression were determined 48 hours after activation. Intracellular cytokine production was determined on day 4 or 5 following restimulation with phorbol myristate acetate (PMA) and ionomycin. […] FIG. 2A, Right is a graph showing dose-response analyses of HF effects on CD8^+ T cell or B cell function. Cells were activated in the presence of DMSO, 40 nM MAZ1310, or increasing concentrations of HF (1.25-40 nM). CFSE dilution, cell surface CD25 expression, and intracellular cytokine production were determined as above 2-5 days after activation.
At approximately 10-fold higher concentrations (>20 nM), HF induced a general inhibition of T and B cell activation, proliferation, and effector function (FIG. 2A, 2B).
as §1
Cytokines secreted into media supernatant were measured using the mouse Th1/Th2 cytometric bead array (CBA—BD Pharmingen) in accordance with manufacturers instructions. Briefly, CD4+ CD25− T cells were activated in anti-CD3/anti-CD28-coated tissue culture wells (see above) and supernatants were collected at the indicated times.
as §2, with “temperature. […]” for “temperature.”

SMILES: O=C(C[C@H]1NCCC[C@@H]1O)Cn1cnc2ccccc2c1=O [FF, febrifugine]
translation of NoPro polypeptide [1]: had no effect on the translation of NoPro | translation of ProPro polypeptide [1]: prevented translation of ProPro | rescue of translation inhibition by added purified EPRS ([1]; 80 ng or 0.5 μg EPRS): rescued HF/FF-inhibition of protein translation | rescue of translation inhibition by added amino acids ([1]; excess amino acids (1-2 mM)): only proline could restore translation | translation of luciferase RNA in RRL [1]: inhibited the translation of luciferase RNA | reversal of GCN2 phosphorylation by cognate amino acid [2]: abrogated by the addition of 2 mM proline | GCN2 phosphorylation in fibroblasts [2]: Stimulation of GCN2 phosphorylation

SMILES: N[C@H](CO)Cc1c[nH]c2ccccc12 [L-tryptophanol]
IL-17 production / Th17 differentiation [3]: impaired IL-17 production | IL-17 production / Th17 differentiation ([3]; listed as tryptophanol): inhibited Th17 differentiation | Th17 differentiation ([3]; 1 mM Tryptophanol): inhibits Th17 differentiation

SMILES: CC(C)(C)OC(=O)N1CCC[C@H](O)[C@H]1CC(=O)Cn1cnc2cc(Br)c(Cl)cc2c1=O [MAZ1310]
activity in cell-based assays [4]: lack activity | translation of luciferase RNA in RRL [1]: no activity

translation of luciferase RNA in RRL [1]: no activity
SMILES: CC(=O)N1CCC[C@H](O)[C@H]1CC(=O)Cn1cnc2cc(Br)c(Cl)cc2c1=O [MAZ1442]
activity in cell-based assays [4]: lack activity

SMILES: NC(=O)c1ccc(-c2nc(-c3ccc4c(c3)OCO4)c(-c3ccccn3)[nH]2)cc1 [SB-431542]
TGFβ-induced Smad phosphorylation and other lymphocyte responses to TGFβ (TGFβ signaling): abrogated all responses to TGFβ

SMILES: C[C@@H]1C[C@H](C)C[C@H](C)[C@@H](O)CC(=O)O[C@H]([C@@H]2CCC[C@H]2C(=O)O)C/C=C/C=C(/C#N)[C@H](O)[C@@H](C)C1 [borrelidin]
Th17 cell differentiation ([3]; 6 nM (3 ng/mL) borrelidin): Selectively Inhibits Th17 Differentiation; also recorded: inhibited Th17 cell differentiation | reversal of Th17 inhibition by threonine [3]: rescued by its cognate amino acid | reversal of Th17 inhibition by threonine ([3]; listed as Borrelidin): reversed by the addition of threonine | production of collagen protein [5]: inhibited by borrelidin-treatment and rescued by the addition of threonine | differentiation of Th1, Th2, or iTreg cells [6]: without perturbing the differentiation of Th1, Th2, or iTreg cells | reversal of GCN2 phosphorylation by cognate amino acid [2]: prevented by addition of an excess of its cognate amino acid threonine | GCN2 phosphorylation in fibroblasts [2]: stimulate GCN2 phosphorylation
